# Read-outs that look alike come from different tables or passages of the source.
# Assays:
# [1] = target: T1, full-length beta-Catenin (Uniprot ID P35222) (Homo sapiens, UniProt P35222); experiment: Fluorescence polarization IC50 (beta-catenin / 5FAM-TCF4 10-53 competition); format: binding
# T1 construct: 10 nM full-length beta-Catenin (Uniprot ID P35222)
# T1 sequence (P35222 1-781): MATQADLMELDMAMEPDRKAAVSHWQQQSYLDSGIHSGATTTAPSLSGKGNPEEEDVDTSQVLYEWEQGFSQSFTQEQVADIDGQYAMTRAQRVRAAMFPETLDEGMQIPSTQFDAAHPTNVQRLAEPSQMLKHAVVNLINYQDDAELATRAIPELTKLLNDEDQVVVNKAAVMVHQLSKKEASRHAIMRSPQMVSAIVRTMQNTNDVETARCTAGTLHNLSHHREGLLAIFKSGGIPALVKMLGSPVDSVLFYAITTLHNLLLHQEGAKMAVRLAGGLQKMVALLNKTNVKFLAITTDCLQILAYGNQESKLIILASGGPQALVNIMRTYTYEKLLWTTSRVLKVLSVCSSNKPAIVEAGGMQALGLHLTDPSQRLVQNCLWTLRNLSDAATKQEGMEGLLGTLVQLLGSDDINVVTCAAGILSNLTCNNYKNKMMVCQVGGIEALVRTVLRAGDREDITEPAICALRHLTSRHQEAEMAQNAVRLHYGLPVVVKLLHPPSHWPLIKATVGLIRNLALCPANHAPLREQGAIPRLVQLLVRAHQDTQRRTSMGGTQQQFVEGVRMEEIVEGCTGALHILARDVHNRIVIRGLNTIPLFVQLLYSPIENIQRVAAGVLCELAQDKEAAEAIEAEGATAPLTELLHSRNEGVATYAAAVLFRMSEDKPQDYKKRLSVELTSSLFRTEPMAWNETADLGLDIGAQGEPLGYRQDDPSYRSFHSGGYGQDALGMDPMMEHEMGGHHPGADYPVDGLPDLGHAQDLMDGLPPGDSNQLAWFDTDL
# Solubility in PBS = format: physicochemical
# Method in brief: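 The PBS solution was ultracentrifuged and the supernatant analyzed by HPLC. Its peak area was divided by that of a 50 μM peptide DMSO reference injection and multiplied by 50 uM to give solubility.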
# CHI Log D procedure = format: physicochemical; conditions: for CHI Log D: pH 7.4; for chromatographic logD: pH 7.4, CHI Log D
# [2] = fluorescence polarization, read-out: beta-Catenin FP IC50
"IC50 [1, 2]",IC50 ([1]; read-out: FP EC50),Solubility (Solubility in PBS),CHI Log D (CHI Log D procedure),Solubility (Solubility in PBS; Solubility (uM)),chromatographic logD (CHI Log D procedure),Structure (SMILES)
0.121 µM,0.121 µM,39 µM,2.076,,,"CC[C@@H]1NC(=O)[C@H](CC(=O)O)NC(=O)[C@]2(CC=CCCCC3(CCCC=CCCCCCC[C@@](C)(C(=O)N[C@@H](Cc4ccccc4)C(=O)N[C@@H](Cc4csc5ccccc45)C(=O)N[C@@H](CCC(N)=O)C(N)=O)NC(=O)[C@H](CC(N)=O)NC(=O)[C@H](Cc4ccccc4)NC(=O)[C@H](C)NC(=O)[C@H](C)NC(=O)[C@H](CCC(=O)O)NC(=O)[C@H](CC(=O)O)NC3=O)NC1=O)CCCN2C(C)=O (stereo partly drawn) [I-473, Ac-PL3-Asp-Abu-B5-Asp-Glu-Ala-Ala-Phe-Asn-S8-Phe-BztA-Gln-NH2]"
0.043 µM,0.043 µM,50 µM,2.114,,,"CC[C@@H]1NC(=O)[C@H](CC(=O)O)NC(=O)[C@]2(CC=CCCCC3(CCCC=CCCCCCC[C@@](C)(C(=O)N[C@@H](Cc4ccccc4)C(=O)N[C@@H](Cc4csc5ccccc45)C(=O)N[C@@H](CCC(N)=O)C(N)=O)NC(=O)[C@H](CC(N)=O)NC(=O)[C@H](Cc4ccccc4)NC(=O)[C@H](C)NC(=O)[C@H](C)NC(=O)[C@H](CCC(=O)O)NC(=O)[C@H](CC(=O)O)NC3=O)NC1=O)CCCN2C(C)=O (stereo partly drawn) [I-474, Ac-PL3-Asp-Abu-B5-Asp-Glu-Ala-Ala-Phe-Asn-S8-Phe-BztA-Gln-NH2]"
0.102 µM,0.102 µM,43 µM,2.277,,,"CC[C@@H](C)[C@@H]1NC(=O)[C@H](CC(=O)O)NC(=O)[C@]2(CC=CCCCC3(CCCC=CCCCCCC[C@@](C)(C(=O)N[C@@H](Cc4ccccc4)C(=O)N[C@@H](Cc4csc5ccccc45)C(=O)N[C@@H](CCC(N)=O)C(N)=O)NC(=O)[C@H](CC(N)=O)NC(=O)[C@H](Cc4ccccc4)NC(=O)[C@H](C)NC(=O)[C@H](C)NC(=O)[C@H](CCC(=O)O)NC(=O)[C@H](CC(=O)O)NC3=O)NC1=O)CCCN2C(C)=O (stereo partly drawn) [I-475, Ac-PL3-Asp-aIle-B5-Asp-Glu-Ala-Ala-Phe-Asn-S8-Phe-BztA-Gln-NH2]"
0.048 µM,0.048 µM,49 µM,2.317,,,"CC[C@@H](C)[C@@H]1NC(=O)[C@H](CC(=O)O)NC(=O)[C@]2(CC=CCCCC3(CCCC=CCCCCCC[C@@](C)(C(=O)N[C@@H](Cc4ccccc4)C(=O)N[C@@H](Cc4csc5ccccc45)C(=O)N[C@@H](CCC(N)=O)C(N)=O)NC(=O)[C@H](CC(N)=O)NC(=O)[C@H](Cc4ccccc4)NC(=O)[C@H](C)NC(=O)[C@H](C)NC(=O)[C@H](CCC(=O)O)NC(=O)[C@H](CC(=O)O)NC3=O)NC1=O)CCCN2C(C)=O (stereo partly drawn) [I-476, Ac-PL3-Asp-aIle-B5-Asp-Glu-Ala-Ala-Phe-Asn-S8-Phe-BztA-Gln-NH2]"
0.119 µM,,,,49 µM,2,"CC(=O)N1CCC[C@]12CC=CCCCC1(CCCC=CCCCCCC[C@@](C)(C(=O)N[C@@H](Cc3ccccc3)C(=O)N[C@@H](Cc3csc4ccccc34)C(=O)N[C@@H](CCC(N)=O)C(N)=O)NC(=O)[C@H](CCC(N)=O)NC(=O)[C@H](Cc3ccccc3)NC(=O)[C@H](C)NC(=O)[C@H](C)NC(=O)[C@H](CCC(=O)O)NC(=O)[C@H](CC(=O)O)NC1=O)NC(=O)[C@H]([C@@H](C)O)NC(=O)[C@H](CC(=O)O)NC2=O (stereo partly drawn) [I-477, Ac-PL3-Asp-Thr-B5-Asp-Glu-Ala-Ala-Phe-Gln-S8-Phe-BztA-Gln-NH2]"
0.071 µM,0.071 µM,42 µM,2.052,,,"CC(=O)N1CCC[C@]12CC=CCCCC1(CCCC=CCCCCCC[C@@](C)(C(=O)N[C@@H](Cc3ccccc3)C(=O)N[C@@H](Cc3csc4ccccc34)C(=O)N[C@@H](Cc3cn(C)cn3)C(N)=O)NC(=O)[C@H](CC(N)=O)NC(=O)[C@H](Cc3ccccc3)NC(=O)[C@H](C)NC(=O)[C@H](C)NC(=O)[C@H](CCC(=O)O)NC(=O)[C@H](CC(=O)O)NC1=O)NC(=O)[C@H](C)NC(=O)[C@H](CC(=O)O)NC2=O (stereo partly drawn) [I-478, Ac-PL3-Asp-Ala-B5-Asp-Glu-Ala-Ala-Phe-Asn-S8-Phe-BztA-1MeH-NH2]"
0.027 µM,0.027 µM,38 µM,2.094,,,"CC(=O)N1CCC[C@]12CC=CCCCC1(CCCC=CCCCCCC[C@@](C)(C(=O)N[C@@H](Cc3ccccc3)C(=O)N[C@@H](Cc3csc4ccccc34)C(=O)N[C@@H](Cc3cn(C)cn3)C(N)=O)NC(=O)[C@H](CC(N)=O)NC(=O)[C@H](Cc3ccccc3)NC(=O)[C@H](C)NC(=O)[C@H](C)NC(=O)[C@H](CCC(=O)O)NC(=O)[C@H](CC(=O)O)NC1=O)NC(=O)[C@H](C)NC(=O)[C@H](CC(=O)O)NC2=O (stereo partly drawn) [I-479, Ac-PL3-Asp-Ala-B5-Asp-Glu-Ala-Ala-Phe-Asn-S8-Phe-BztA-1MeH-NH2]"

# Second part, the compound before the results:
Structure (SMILES),"IC50 [1, 2]",IC50 ([1]; read-out: FP EC50),Solubility (Solubility in PBS),CHI Log D (CHI Log D procedure),Solubility (Solubility in PBS; Solubility (uM)),chromatographic logD (CHI Log D procedure)
"CC(=O)N1CCC[C@]12CC=CCCCC1(CCCC=CCCCCCC[C@@](C)(C(=O)N[C@@H](Cc3ccccc3)C(=O)N[C@@H](Cc3csc4ccccc34)C(=O)N[C@@H](Cc3c[nH]cn3)C(N)=O)NC(=O)[C@H](CC(N)=O)NC(=O)[C@H](Cc3ccccc3)NC(=O)[C@H](C)NC(=O)[C@H](C)NC(=O)[C@H](CC(=O)O)NC(=O)[C@H](CC(=O)O)NC1=O)NC(=O)[C@H](C)NC(=O)[C@H](CC(=O)O)NC2=O (stereo partly drawn) [I-465, Ac-PL3-Asp-Ala-B5-Asp-Asp-Ala-Ala-Phe-Asn-S8-Phe-BztA-His-NH2]",0.081 µM,0.081 µM,40 µM,2.023,,
"CC(=O)N1CCC[C@]12CC=CCCCC1(CCCC=CCCCCCC[C@@](C)(C(=O)N[C@@H](Cc3ccccc3)C(=O)N[C@@H](Cc3csc4ccccc34)C(=O)N[C@@H](Cc3c[nH]cn3)C(N)=O)NC(=O)[C@H](CC(N)=O)NC(=O)[C@H](Cc3ccccc3)NC(=O)[C@H](C)NC(=O)[C@H](C)NC(=O)[C@H](CC(=O)O)NC(=O)[C@H](CC(=O)O)NC1=O)NC(=O)[C@H](C)NC(=O)[C@H](CC(=O)O)NC2=O (stereo partly drawn) [I-466, Ac-PL3-Asp-Ala-B5-Asp-Asp-Ala-Ala-Phe-Asn-S8-Phe-BztA-His-NH2]",0.019 µM,0.019 µM,50 µM,2.069,,
"CC[C@H](C)[C@@H]1NC(=O)[C@H](CC(=O)O)NC(=O)[C@]2(CC=CCCCC3(CCCC=CCCCCCC[C@@](C)(C(=O)N[C@@H](Cc4ccccc4)C(=O)N[C@@H](Cc4csc5ccccc45)C(=O)N[C@@H](CCC(N)=O)C(N)=O)NC(=O)[C@H](CC(N)=O)NC(=O)[C@H](Cc4ccccc4)NC(=O)[C@H](C)NC(=O)[C@H](C)NC(=O)[C@H](CC(=O)O)NC(=O)[C@H](CC(=O)O)NC3=O)NC1=O)CCCN2C(C)=O (stereo partly drawn) [I-467, Ac-PL3-Asp-Ile-B5-Asp-Asp-Ala-Ala-Phe-Asn-S8-Phe-BztA-Gln-NH2]",0.044 µM,0.044 µM,50 µM,2.255,,
"CC[C@H](C)[C@@H]1NC(=O)[C@H](CC(=O)O)NC(=O)[C@]2(CC=CCCCC3(CCCC=CCCCCCC[C@@](C)(C(=O)N[C@@H](Cc4ccccc4)C(=O)N[C@@H](Cc4csc5ccccc45)C(=O)N[C@@H](CCC(N)=O)C(N)=O)NC(=O)[C@H](CC(N)=O)NC(=O)[C@H](Cc4ccccc4)NC(=O)[C@H](C)NC(=O)[C@H](C)NC(=O)[C@H](CC(=O)O)NC(=O)[C@H](CC(=O)O)NC3=O)NC1=O)CCCN2C(C)=O (stereo partly drawn) [I-468, Ac-PL3-Asp-Ile-B5-Asp-Asp-Ala-Ala-Phe-Asn-S8-Phe-BztA-Gln-NH2]",0.027 µM,0.027 µM,41 µM,2.292,,
"CC[C@H](C)[C@@H]1NC(=O)[C@H](CC(=O)O)NC(=O)[C@]2(CC=CCCCC3(CCCC=CCCCCCC[C@@](C)(C(=O)N[C@@H](Cc4ccccc4)C(=O)N[C@@H](Cc4csc5ccccc45)C(=O)N[C@@H](Cc4c[nH]cn4)C(N)=O)NC(=O)[C@H](CCC(N)=O)NC(=O)[C@H](Cc4ccccc4)NC(=O)[C@H](C)NC(=O)[C@H](C)NC(=O)[C@H](CCC(=O)O)NC(=O)[C@H](CC(=O)O)NC3=O)NC1=O)CCCN2C(C)=O (stereo partly drawn) [I-471, Ac-PL3-Asp-Ile-B5-Asp-Glu-Ala-Ala-Phe-Gln-S8-Phe-BztA-His-NH2]",0.052 µM,,,,13 µM,2.43
"CC[C@H](C)[C@@H]1NC(=O)[C@H](CC(=O)O)NC(=O)[C@]2(CC=CCCCC3(CCCC=CCCCCCC[C@@](C)(C(=O)N[C@@H](Cc4ccccc4)C(=O)N[C@@H](Cc4csc5ccccc45)C(=O)N[C@@H](Cc4c[nH]cn4)C(N)=O)NC(=O)[C@H](CC(N)=O)NC(=O)[C@H](Cc4ccccc4)NC(=O)[C@H](C)NC(=O)[C@H](C)NC(=O)[C@H](CCC(=O)O)NC(=O)[C@H](CC(=O)O)NC3=O)NC1=O)CCCN2C(C)=O (stereo partly drawn) [I-472, Ac-PL3-Asp-Ile-B5-Asp-Glu-Ala-Ala-Phe-Asn-S8-Phe-BztA-His-NH2]",0.062 µM,,,,36 µM,2.42
